Data taken from patent US20260207711A1, “FORMULATIONS, DEVICES AND METHODS FOR A GLP-1 AGONIST” (Nano Precision Medical, Inc., priority 2023, published 2026).

Experiment: Stability of the formulation remaining in terminated devices (purity, remaining concentration, mass balance by HPLC)
Type: physicochemical
Conditions: over 77 days; starting purity of semaglutide as received 94%
Description: Each trace in the figure represents a separate measurement of a separate vial. At the end of the time period devices were terminated, disassembled and the internal compositions measured.
The mass balance numbers indicate that no appreciable amount of drug was lost in the form of degradants undetectable by HPLC, such a fibrils.
[…] Purities were […].

semaglutide
total loss in purity: 7-8%
